Laboratory results published in PMC10907374, “G2019S selective LRRK2 kinase inhibitor abrogates mitochondrial DNA damage” (NPJ Parkinson's Disease, 2024).

Key:
[1] = test system: LRRK2 kinase; conditions: humans ref 15; cited from earlier work
[2] = test system: wild-type HEK293 cells; test: Mitophagy (Mtphagy dye / Lyso dye live cell imaging) in wild-type HEK293 cells; format: cell-based, human; conditions: 20 μM FCCP, 3 h
Description: (§1) Thirty-five mm cell culture dishes (Cellvis, D35-20-1.5-N) were coated with poly-D-lysine (Sigma-Aldrich, P7280-5MG) for 5 min, washed with cell culture grade water (Sigma-Aldrich, W3500), and allowed to dry for at least 1 h before plating. LRRK2^G2019S/G2019S KI HEK293 and wild-type cells were passaged as described above and plated at 300,000 cells per well on poly-D-lysine-coated dishes. […] Following this, cells were washed three times with serum-free medium, and a working solution of Mtphagy dye (Dojindo, MD-01) was prepared in serum-free medium according to manufacturer protocols. Cultures were incubated with Mtphagy dye for 30 min, followed by three washes with serum-free medium. Complete medium was used to prepare a 20 µM FCCP (Abcam, ab120081) or DMSO control treatment solution, which was used to treat cells for 3 h. Following treatment, cells were then washed 3 times with serum-free medium, and a working solution of Lyso dye (Dojindo, MD-01) was prepared in serum-free medium and used to treat cells for 30 min. Complete medium lacking phenol red was prepared for use in confocal live cell imaging by combining phenol red-free DMEM/F-12 (Fisher Scientific, 21-041-025), FBS (VWR, 97068-085), and penicillin-streptomycin (VWR, 45000-652). Following Lyso dye treatment, cultures were washed three times with phenol red-free medium, followed by adding fresh phenol red-free medium to cell culture dishes. MitoBright LT Deep Red (Dojindo, MT12-12) was diluted in growth medium to prepare a 0.1 μmol/l solution and was used to treat cells for 15 min for total mitochondrial staining. Live cell imaging (5% CO2, 37 °C) was performed using a Zeiss LSM 880 Confocal Laser Scanning Microscope with Zen Black software. On average, ~70 cells were analyzed for each condition per each experimental replicate.
(§2) Following imaging, files were processed using Zen Blue software, and TIFF files of each channel were obtained for analysis. ImageJ was used to obtain readouts for image analysis. All images were converted to 8-bit format. For each respective image, the Lyso dye channel was used to create a mask delineating each lysosomal focus as a region of interest (ROI). Thresholding parameters were adjusted between biological replicates as required to ensure that the Lyso dye ROI encompassed all lysosome foci appropriately, and this was used to create a mask. This was then applied to the corresponding Mtphagy dye channel image, allowing collection of Mtphgy fluorescence intensity readouts for each lysosomal focus. Outliers were removed using Prism software (GraphPad) with the coefficient of removal set to 0.2%. Data was thresholded to exclude lysosomes not containing mitochondria by excluding fluorescence values with intensities equal to or below background levels. The number of ROIs remaining after thresholding was used to quantify lysosomes containing fluorescing mitochondria (mitolysosomes). Fluorescence intensity values for all mitolysosomes per condition per biological replicate were averaged to obtain a value of mitophagy fluorescence intensity per mitolysosome. For each replicate, all values of average mitolysosome fluorescence intensity were normalized to wild-type (vehicle treated) levels for the given replicate.

[3] = test system: LRRK2^G2019S/G2019S KI HEK293 cells; test: Mitophagy (Mtphagy dye / Lyso dye live cell imaging) in LRRK2 G2019S/G2019S KI HEK293 cells; format: cell-based, human; conditions: 20 μM FCCP, 3 h
Description: as §1, §2

Row | SMILES | inhibition of LRRK2 kinase by blood-based markers [1] | mitophagy following FCCP treatment [2] | mitophagy following FCCP treatment [3]
1 | CNc1nc(Nc2cn(C(C)(C)C#N)nc2C)ncc1C(F)(F)F [DNL201] | dose-dependent inhibition |  | 
2 | N#CC(C#N)=NNc1ccc(OC(F)(F)F)cc1 [FCCP] |  | increased | defect
